# What was measured:
# Format in all cases: cell-based
# [1] = test system: PMA-stimulated TGFα release from HEK-293 cells (substrate of iRhom1/ADAM17 and iRhom2/ADAM17); test: Counter screen (Example 4b): PMA-stimulated TGFα release from HEK-293 cells, AP readout; conditions: Homo sapiens, HEK293, HEK-293 cells expressing TGFα-AP, PMA 100 ng/mL, 2 h
# Procedure: A tertiary counterscreen was also performed to monitor the release of TGFα, which is a substrate of iRhom1/ADAM17 and iRhom2/ADAM17, so its release should not be blocked by an iRhom2-selective inhibitor (Maretzky T et al. (July 2013), “iRhom2 controls the substrate selectivity of stimulated ADAM117-dependent ectodomain shedding”, PNAS 110(28): 11433-11438; and Li X et al. (May 2015), “iRhoms 1 and 2 are essential upstream regulators of ADAM17-dependent EGFR signaling”, PNAS 112(19): 6080-6085).
# (§1) Expression plasmids for alkaline phosphatase (AP)-fused human KL2 and TGFα had been previously designed and generated through gene synthesis followed by subcloning into the pcDNA3.1(+)/Hygro expression vector. […] Subsequently, DNA amplifications were performed to obtain sufficient amounts of the expression vectors. The quality of DNA and gene sequences were confirmed through restriction digest and Sanger sequencing. In parallel, cell culture of HEK-293 cells was initiated. Master and working cell banks were prepared, scaled up and transfected with the respective constructs by electroporation. During cell culturing, cell density and viability were monitored to ensure optimal conditions for the transfections. After PMA stimulation, AP-coupled KL2 or TGFα were detected by measurement of AP activity in the supernatant.
# (§2) After electroporation, cells were further cultured in presence of selection antibiotics, hygromycin B, to generate stably transfected polyclonal cell pools. For both assays, KL2 and TGFα shedding, the respective selected pool turned out to be suitable. Final assay conditions were determined for the selected pools. For all experiments, batimastat (BB94, 10 μM) was used as positive control for full inhibition of KL2 or TGFα shedding.
# (§3) The wells of sterile 384-well flat bottom clear plates for TGF-AP assays were coated with 10 μL of 0.1 mg/mL poly-d-lysine for 3-4 hr at 25° C. or overnight at 4° C., then washed 2× with PBS and patted dry. 60 μL of cells (20,000/well) were added to the sterile 384-well plate and incubated in Optimem (with 2% FCS and 1% Pen-strep) overnight at 37° C. (5% CO2). After incubation overnight, 55 μL medium were removed with a BioTek EL406 and 10 μL of prediluted compounds were added to the cells for a final concentration of 20 μM. After incubation for 15 min, 15 μL of PMA (100 ng/mL final conc.) were added. The cells were incubated for 2 h at 37° C. (5% CO2). Then, the plates were centrifuged for 5 min at 1000 rpm and 12 μL of the supernatant was transferred to a fresh 384 well plate. 12 μL of pNPP p-nitrophenyl phosphate (final 1 M pNPP) was added. AP reaction was performed for 1 h at 37° C. The reaction was stopped by addition of 12 μL of NaOH (1 M final conc.), the plates were centrifuged to remove air bubbles and the absorbance of pNP was measured at 405 nm.
# [2] = test system: TNFα release from LPS-stimulated THP-1 cells (iRhom2/ADAM17-dependent); test: Primary screen (Example 1b): LPS-stimulated TNFα release from THP-1 cells, HTRF; conditions: Homo sapiens, overnight pre-incubation, LPS 100 ng/mL, 3 h, normalized against 10 μM Batimastat
# Procedure: (§4) Two separate screens to identify novel small molecule inhibitors of iRhom2/ADAM17 activity were developed. […] Therefore, the primary screen for small molecule inhibitors of iRhom2/ADAM17 was a screen for inhibitors that blocked the release of TNFα from LPS-stimulated THP-1 human myeloid cells, a process that depends on iRhom2 and ADAM17. Since the release of TNFα from THP-1 cells can be blocked at many stages of the LPS/TLR4/iRhom2/ADAM17 pathway, a secondary screen was performed for another iRhom2/ADAM17 selective substrate, Kit-ligand 2 (KL-2) (Maretzky T et al. (July 2013), “iRhom2 controls the substrate selectivity of stimulated ADAM17-dependent ectodomain shedding”, PNAS 110(28): 11433-11438) in a different human cell type, human embryonic kidney cells (HEK 293).
# THP-1 cells were plated in low volume 384 wells (10,000 cells per well in 12.6 μL RPMI medium) together with inhibitors or 10 μM BB94 and incubated over night. The next day, TNFα shedding was initiated by stimulation of THP-1 cells with 100 ng/mL LPS (1.8 μL of an 800 ng/mL LPS stock) for 3 hrs at 37° C. The extent of released TNFα was detected with the corresponding HTRF antibodies labeled with europium cryptate (donor) and d2 (acceptor). The HTRF signal was generated by proximity of europium cryptate and d2. All detection reagents were purchased from Cisbio. TNFα detection was performed according to the manufacturer's protocol (Product Insert for Cisbio TNFα (h) Kit Part #62HTNFAPEG & 62HTNFAPEH; https://www.cisbio.com/media/asset/c/i/cisbio_dd_pi_62htnfapeg-62htnfapeh.pdf, accessed Sep. 28, 2020).
# Low volume 384 well plates were pre-coated with small molecule library compounds for a final concentration of 20 μM in a 15 μL reaction, or 0.75 μL of 200 μM stock of BB94 in 5% DMSO (final concentration 0.25%). 12.6 μL of cell suspension [8E5/mL; 10,000 cells/well; culture RPMI medium] and pre-incubated at 37° C., 5% CO2, over night. The next day, 1.8 μL of an 800 ng/mL LPS stock was added [final concentration 100 ng/mL in 15 μL assay] and the cells were incubated at 37° C., 5% CO2, for 3 h. Subsequently, 3 μL of the HTRF-mix [used at 1:3 dilution of cisbio HTRF human TNF] was added and the plates were incubated for an additional 2 hrs at 25° C. After an incubation at room temperature for 2 h, the HTRF readout was performed. Then data evaluation for normalization against the 10 μM Batimastat control (=100% […]) was applied.
# [3] = test system: PMA-stimulated KL2 release from HEK-293 cells (iRhom2/ADAM17 selective substrate); test: Secondary screen (Example 3b): PMA-stimulated KL2 release from HEK-293 cells, AP readout; conditions: Homo sapiens, HEK293, HEK-293 cells expressing KL2-AP, PMA 100 ng/mL, 2 h, read-out: Secondary Screen IC50 KitL2
# Procedure: as §4, §1, §2
# as §3, with “for KL2-AP” for “for TGF-AP”, “cells (40,000/well)” for “cells (20,000/well)”, “and 3” for “and 12”, “well plate and 9 μL of AP Balance Buffer was added per well.” for “well plate.”
smiles,measurement,setting,value
CC(=O)Oc1ccccc1Cn1c(C)c(C(=O)NCc2cccs2)sc1=O [Compound 6],IC50,[1],> 40 µM
same,IC50,[2],4.86 µM
same,IC50,[3],> 40 µM

# Reference: US20260242359A1, “IRHOM2 INHIBITORS AND USES THEREOF” (NEW YORK SOCIETY FOR THE RELIEF OF THE RUPTURED AND …, priority 2023, published 2026)
